Results reported in patent US20240400555A1 (Initial Therapeutics, Inc., priority 2023, published 2024).
Read-outs that look alike come from different tables or passages of the source.

Tested on: MV-4-11 cells
Assay: Cell Viability Assay in MV-4-11 Cells
Type: cell-based
Details: Homo sapiens, MV4-11, 72 h
Procedure: MV-4-11 cells (ATCC) were seeded into sterile 96-well flat clear bottom white polystyrene TC-treated microplates (Corning) at 7,000 cells/well in 150 μL complete growth medium (Iscove's Modified Dulbecco's Medium (IMDM) (Gibco), 10% Heat Inactivated Fetal Bovine Serum (HyClone), 1% Penicillin-Streptomycin-L-Glutamine (HyClone), 1% GlutaMAX (Gibco)). […] After 72 h incubation, plates were removed from incubators and allowed to equilibrate to room temperature (˜10 min) before adding 50 μL per well Cell-Titer Glo reagent (Promega) using a WellJet (Integra Biosciences) dispenser. Plates were then incubated at room temperature for 2-20 min prior to measurement of luminescence on an Envision (Perkin Elmer) plate reader. Data were normalized to DMSO (100% viability) and analyzed using a non-linear four-parameter curve fit.

[1] = MV-4-11 cells, 72 h, Cell-Titer Glo, read-out: IC50

| SMILES | IC50 [1] [nM] | IC50 [nM] |
| --- | --- | --- |
| Cc1cccc2ccnc(N(C(=O)N3CCCC(N4C(=O)c5ccccc5C4=O)C3)[C@@H]3CCCNC3)c12 (stereo partly drawn) [Example 345, 3-(1,3-dioxoisoindolin-2-yl)-N-(8-methylisoquinolin-1-yl)-N—((R)-piperidin-3-yl)piperidine-1-carboxamide] | 300 |  |
| Cn1cc(-c2ccc(C(=O)N(c3cc(/C=C\CCO)ccn3)[C@@H]3CCCNC3)cc2)nn1 [Example 346, N-[4-[(Z)-4-hydroxybut-1-enyl]-2-pyridyl]-4-(1-methyltriazol-4-yl)-N-[(3R)-3-piperidyl] benzamide] | > 10000 |  |
| Cc1cccc2ccnc(N(C(=O)N3CCC(c4cn(C)nn4)CC3)[C@@H]3CCCNC3)c12 [Example 347, N-(8-methyl-1-isoquinolyl)-4-(1-methyltriazol-4-yl)-N-[(3R)-3-piperidyl]piperidine-1-carboxamide] | 300 |  |
| Cn1cc(-c2ccc(C(=O)N(c3nccc4cccc(/C=C/c5cn[nH]c5)c34)[C@@H]3CCCNC3)cc2)nn1 [Example 348, (R,E)-N-(8-(2-(1H-pyrazol-4-yl)vinyl)isoquinolin-1-yl)-4-(1-methyl-1H-1,2,3-triazol-4-yl)-N-(piperidin-3-yl)benzamide] | 460 |  |
| Cn1cc(-c2ccc(C(=O)N(c3nccc4cccc(/C=C/c5cccnc5)c34)[C@@H]3CCCNC3)cc2)nn1 [Example 349, 4-(1-methyltriazol-4-yl)-N-[(3R)-3-piperidyl]-N-[8-[(E)-2-(3-pyridyl)vinyl]-1-isoquinolyl]benzamide] | 310 |  |
| Cc1cccc2ccnc(N(C(=O)c3ccc(-c4cncnc4N)cc3F)[C@@H]3CCCNC3)c12 [Example 353, (R)-4-(4-aminopyrimidin-5-yl)-2-fluoro-N-(8-methylisoquinolin-1-yl)-N-(piperidin-3-yl)benzamide] | 540 |  |
| Cc1ncnc(C)c1-c1ccc(C(=O)N(c2nccc3cccc(C)c23)[C@@H]2CCCNC2)c(F)c1 [Example 354, 4-(4,6-dimethylpyrimidin-5-yl)-2-fluoro-N-(8-methyl-1-isoquinolyl)-N-[(3R)-3-piperidyl]benzamide] | 970 |  |
| Cc1nccc(N)c1-c1ccc(C(=O)N(c2nccc3cccc(C)c23)[C@@H]2CCCNC2)c(F)c1 [Example 361, (R)-4-(4-amino-2-methylpyridin-3-yl)-2-fluoro-N-(8-methylisoquinolin-1-yl)-N-(piperidin-3-yl)benzamide] | > 10000 |  |
| C=CCc1ccnc(N(C(=O)c2ccc(Cl)c(CC=C)c2)[C@@H]2CCCNC2)c1 [Example 362, 3-allyl-N-(4-allyl-2-pyridyl)-4-chloro-N-[(3R)-3-piperidyl]benzamide] |  | 4300 |
| Cn1cc(-c2ccc(C(=O)N(c3nccc4sc(-c5ccncc5)cc34)[C@@H]3CCCNC3)c(F)c2)nn1 [Example 363, 2-fluoro-4-(1-methyltriazol-4-yl)-N-[(3R)-3-piperidyl]-N-[2-(4-pyridyl)thieno[3,2-c]pyridin-4-yl]benzamide] | 350 |  |
| O=C(c1ccc(-n2nnc3cccnc32)cc1F)N(c1nccc2sc(-c3cccnc3)cc12)[C@@H]1CCCNC1 [Example 364, 2-fluoro-N-[(3R)-3-piperidyl]-N-[2-(3-pyridyl)thieno[3,2-c]pyridin-4-yl]-4-(triazolo[4,5-b]pyridin-3-yl)benzamide] | 360 |  |
| O=C(c1ccc(-n2nnc3cccnc32)cc1F)N(c1nccc2sc(-c3ccccn3)cc12)[C@@H]1CCCNC1 [Example 365, 2-fluoro-N-[(3R)-3-piperidyl]-N-[2-(2-pyridyl)thieno[3,2-c]pyridin-4-yl]-4-(triazolo[4,5-b]pyridin-3-yl)benzamide] | 480 |  |
| O=C(c1ccc(-n2nnc3cccnc32)cc1F)N(c1nccc2cc(-c3ncco3)ccc12)[C@@H]1CCCNC1 [Example 366, (R)-4-(3H-[1,2,3]triazolo[4,5-b]pyridin-3-yl)-2-fluoro-N-(6-(oxazol-2-yl)isoquinolin-1-yl)-N-(piperidin-3-yl)benzamide] | 290 |  |
| O=C(c1ccc(-n2nnc3cccnc32)cc1F)N(c1nccc2cc(-c3cccnc3)ccc12)[C@@H]1CCCNC1 [Example 367, (R)-4-(3H-[1,2,3]triazolo[4,5-b]pyridin-3-yl)-2-fluoro-N-(piperidin-3-yl)-N-(6-(pyridin-3-yl)isoquinolin-1-yl)benzamide] | 250 |  |
| O=C(c1ccc(-n2nnc3cccnc32)cc1F)N(c1nccc2cc(-c3cccs3)ccc12)[C@@H]1CCCNC1 [Example 368, (R)-4-(3H-[1,2,3]triazolo[4,5-b]pyridin-3-yl)-2-fluoro-N-(piperidin-3-yl)-N-(6-(thiophen-2-yl)isoquinolin-1-yl)benzamide] | 500 |  |
| CNC(=O)c1ccc2c(N(C(=O)c3ccc(-n4nnc5cccnc54)cc3F)[C@@H]3CCCNC3)nccc2c1 [Example 369, (R)-1-(4-(3H-[1,2,3]triazolo[4,5-b]pyridin-3-yl)-2-fluoro-N-(piperidin-3-yl)benzamido)-N-methylisoquinoline-6-carboxamide] | 230 |  |
| Cn1cc(-c2ccc(C(=O)N(c3nccc4cc(-c5cccnc5)ccc34)[C@@H]3CCCNC3)c(F)c2)nn1 [Example 370, (R)-2-fluoro-4-(1-methyl-1H-1,2,3-triazol-4-yl)-N-(piperidin-3-yl)-N-(6-(pyridin-3-yl)isoquinolin-1-yl)benzamide] | 180 |  |
| O=C(NCCO)c1ccc2c(N(C(=O)c3ccc(-n4nnc5cccnc54)cc3F)[C@@H]3CCCNC3)nccc2c1 [Example 371, (R)-1-(4-(3H-[1,2,3]triazolo[4,5-b]pyridin-3-yl)-2-fluoro-N-(piperidin-3-yl)benzamido)-N-(2-hydroxyethyl) isoquinoline-6-carboxamide] | 1300 |  |
| CC(C)NC(=O)c1ccc2c(N(C(=O)c3ccc(-n4nnc5cccnc54)cc3F)[C@@H]3CCCNC3)nccc2c1 [Example 372, (R)-1-(4-(3H-[1,2,3]triazolo[4,5-b]pyridin-3-yl)-2-fluoro-N-(piperidin-3-yl)benzamido)-N-isopropylisoquinoline-6-carboxamide] |  | 100 |
| O=C(NCc1ccccc1)c1ccc2c(N(C(=O)c3ccc(-n4nnc5cccnc54)cc3F)[C@@H]3CCCNC3)nccc2c1 [Example 373, (R)-1-(4-(3H-[1,2,3]triazolo[4,5-b]pyridin-3-yl)-2-fluoro-N-(piperidin-3-yl)benzamido)-N-benzylisoquinoline-6-carboxamide] | 180 |  |
| CNC(=O)c1cc(-c2cc3c(N(C(=O)c4ccc(-n5nnc6cccnc65)cc4F)[C@@H]4CCCNC4)nccc3s2)ccn1 [Example 374, 4-[4-[[2-fluoro-4-(triazolo[4,5-b]pyridin-3-yl)benzoyl]-[(3R)-3-piperidyl]amino]thieno[3,2-c]pyridin-2-yl]-N-methyl-pyridine-2-carboxamide] | 600 |  |
| COC(=O)c1ccc(-c2cc3c(N(C(=O)c4ccc(-n5nnc6cccnc65)cc4F)[C@@H]4CCCNC4)nccc3s2)cc1 [Example 375, methyl 4-[4-[[2-fluoro-4-(triazolo[4,5-b]pyridin-3-yl)benzoyl]-[(3R)-3-piperidyl]amino]thieno[3,2-c]pyridin-2-yl]benzoate] | 600 |  |
| CC(C)(O)C#Cc1cc2c(N(C(=O)c3ccc(-n4nnc5cccnc54)cc3F)[C@@H]3CCCNC3)nccc2s1 [Example 376, 2-fluoro-N-[2-(3-hydroxy-3-methyl-but-1-ynyl)thieno[3,2-c]pyridin-4-yl]-N-[(3R)-3-piperidyl]-4-(triazolo[4,5-b]pyridin-3-yl)benzamide] |  | 680 |
| O=C(c1ccc(-n2nnc3cccnc32)cc1F)N(c1nccc2sc(-c3ccc(O)cc3)cc12)[C@@H]1CCCNC1 [Example 377, (R)-4-(3H-[1,2,3]triazolo[4,5-b]pyridin-3-yl)-2-fluoro-N-(2-(4-hydroxyphenyl)thieno[3,2-c]pyridin-4-yl)-N-(piperidin-3-yl)benzamide] | 1300 |  |
| COc1ccc(-c2cc3c(N(C(=O)c4ccc(-n5nnc6cccnc65)cc4F)[C@@H]4CCCNC4)nccc3s2)cc1 [Example 378, 2-fluoro-N-[2-(4-methoxyphenyl)thieno[3,2-c]pyridin-4-yl]-N-[(3R)-3-piperidyl]-4-(triazolo[4,5-b]pyridin-3-yl)benzamide] | 190 |  |
| O=C(O)c1ccc(-c2cc3c(N(C(=O)c4ccc(-n5nnc6cccnc65)cc4F)[C@@H]4CCCNC4)nccc3s2)cc1 [Example 379, 4-[4-[[2-fluoro-4-(triazolo[4,5-b]pyridin-3-yl)benzoyl]-[(3R)-3-piperidyl]amino]thieno[3,2-c]pyridin-2-yl]benzoic acid] | > 10000 |  |
| CNC(=O)c1ccc(-c2cc3c(N(C(=O)c4ccc(-n5nnc6cccnc65)cc4F)[C@@H]4CCCNC4)nccc3s2)cc1 [Example 380, 2-fluoro-N-[2-[4-(methylcarbamoyl)phenyl]thieno[3,2-c]pyridin-4-yl]-N-[(3R)-3-piperidyl]-4-(triazolo[4,5-b]pyridin-3-yl)benzamide] | 120 |  |
| O=C(c1ccc(-n2nnc3cccnc32)cc1F)N(c1nccc2sc(-c3cccc(O)c3)cc12)[C@@H]1CCCNC1 [Example 381, 2-fluoro-N-[2-(3-hydroxyphenyl)thieno[3,2-c]pyridin-4-yl]-N-[(3R)-3-piperidyl]-4-(triazolo[4,5-b]pyridin-3-yl)benzamide] | 200 |  |
| C#Cc1cc2c(N(C(=O)c3ccc(-n4nnc5cccnc54)cc3F)[C@@H]3CCCNC3)nccc2s1 [Example 382, N-(2-ethynylthieno[3,2-c]pyridin-4-yl)-2-fluoro-N-[(3R)-3-piperidyl]-4-(triazolo[4,5-b]pyridin-3-yl)benzamide] | 640 |  |
